Experimental data: patent US20150175603A1, “TRICYCLIC COMPOUNDS AS KAT II INHIBITORS” (PFIZER INC., priority 2012, published 2015)
Where a name gives a salt, the structure may show the parent alone.

Molecular target: human KAT II (hKAT II) enzyme (Homo sapiens, UniProt Q8N5Z0)
Experiment: KAT II Inhibition Spectra Assay
Format: biochemical
Settings: single determination unless marked a (geometric mean of 2-4 determinations); decrease in OD370, L-kynurenine substrate, 37° C. for 15-20 h; hydrochloride salt; read-out: KATII IC50
Protocol: KAT II Inhibition Spectra Assay
Formation of kynurenic acid (KYNA) is indirectly assessed by a decrease in light absorbance at 370 nm (OD370) as the L-kynurenine (KYN) substrate is converted by the human KAT II (hKAT II) enzyme into KYNA. An inhibitor would therefore inhibit the decrease in OD370.
The protocol was performed by placing the following reagents into a Costar 384 well black plate (30 μL total assay volume/well): • 10 μL of 3× concentrated compound; • 10 μL of 3× concentrated substrate mix (BGG (Sigma G-5009); 3 mM L-Kynurenine in 150 mM Tris Acetate (Sigma K3750); 3 mM α-ketoglutaric acid in 150 mM Tris Acetate (Sigma K2010); and 210 μM pyridoxal 5-phosphate (PLP) in 150 mM Tris Acetate (Sigma 9255)); and • 10 μL of 3× concentrated enzyme (15 nM enzyme in 150 mM Tris Acetate with 0.3% bovine serum).
Plates were sealed and incubated at 37° C. for 15-20 h before reading OD370 on a SpectraMax Plus plate reader. IC50s were generated by comparing the efficacy of compounds across a concentration range to inhibit a reduction in the OD370 value relative to assay wells with DMSO added in place of concentrated compound. Biological data for the Examples may be found in Table 2.

Chain of human KAT II (hKAT II) enzyme (Q8N5Z0 30-425): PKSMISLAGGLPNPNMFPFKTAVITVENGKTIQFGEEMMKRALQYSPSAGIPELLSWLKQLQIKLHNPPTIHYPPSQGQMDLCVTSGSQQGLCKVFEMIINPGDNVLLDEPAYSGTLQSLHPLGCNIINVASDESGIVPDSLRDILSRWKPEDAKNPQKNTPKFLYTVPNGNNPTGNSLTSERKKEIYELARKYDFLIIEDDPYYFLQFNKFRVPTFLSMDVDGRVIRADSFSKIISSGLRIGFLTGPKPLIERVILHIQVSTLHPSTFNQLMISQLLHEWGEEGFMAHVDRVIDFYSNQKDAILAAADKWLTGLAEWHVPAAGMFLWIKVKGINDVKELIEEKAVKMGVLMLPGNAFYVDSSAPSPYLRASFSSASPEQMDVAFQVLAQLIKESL

Q: How did the IC50 turn out when `COc1cccc(Oc2ccc3c(c2)CC(N)c2n[nH]c(=O)n2-3)c1` (single isomer, unassigned; ent-1) [Example 1, 4-Amino-7-(3-methoxyphenoxy)-4,5-dihydro[1,2,4]triazolo[4,3-a]quinolin-1(2H)-one ENT-1, hydrochloride salt] was run?
A: Its IC50 is 188 nM.

Same assay, conditions: single determination unless marked a (geometric mean of 2-4 determinations); decrease in OD370, L-kynurenine substrate, 37° C. for 15-20 h; read-out: KATII IC50

Q: With `Cc1ccccc1-c1ccc2c(c1)CC(N)c1n[nH]c(=O)n1-2` (stereo not shown) [Example 31, 4—amino—7—(2—methylphenyl)—4,5—dihydro[1,2,4]triazolo[4,3—a]quinolin—1(2H)—one, trifluoroacetate salt] as the compound, how does the IC50 read?
A: Its IC50 is 660 nM.

Q: For `Cn1nccc1-c1ccc2c(c1)CC(N)c1n[nH]c(=O)n1-2` (stereo not shown) [Example 36, 4—amino—7—(1—methyl—1H—pyrazol—5—yl)—4,5—dihydro[1,2,4]triazolo[4,3—a]quinolin—1(2H)—one, trifluoroacetate salt], which IC50 is on record?
A: Its IC50 is 632 nM.

Q: Which IC50 does the source give for `NC1Cc2cc(Cc3ccccc3)ccc2-n2c1n[nH]c2=O` (stereo not shown) [Example 44, 4—amino—7—benzyl—4,5—dihydro[1,2,4]triazolo[4,3—a]quinolin—1(2H)—one, hydrochloride salt] here?
A: Its IC50 is 426 nM.

Q: Which IC50 does the source give for `CC(=O)c1cccc(-c2ccc3c(c2)CC(N)c2n[nH]c(=O)n2-3)c1` (stereo not shown) [Example 25, 7—(3—acetylphenyl)—4—amino—4,5—dihydro[1,2,4]triazolo[4,3—a]quinolin—1(2H)—one, trifluoroacetate salt] here?
A: Its IC50 is 91.9 nM.

Q: With `NC1Cc2cc(-c3cccc(C(F)(F)F)c3)ccc2-n2c1n[nH]c2=O` (stereo not shown) [Example 27, 4—amino—7—[3—(trifluoromethyl)phenyl]—4,5—dihydro[1,2,4]triazolo[4,3-a]quinolin—1(2H)—one, trifluoroacetate salt] as the compound, how does the IC50 read?
A: Its IC50 is 215 nM.

Q: Which IC50 does the source give for `NC1Cc2cc(-c3ccccc3Cl)ccc2-n2c1n[nH]c2=O` (stereo not shown) [Example 11, 4—amino—7—(2-chlorophenyl)—4,5—dihydro[1,2,4]triazolo[4,3—a]quinolin—1(2H)—one, trifluoroacetate salt] here?
A: Its IC50 is 506 nM.

Q: With `COc1cccc(Oc2ccc3c(c2)CC(N)c2n[nH]c(=O)n2-3)c1` (single isomer, unassigned; ent-2) [Example C9, 4-amino-7-(3-methoxyphenoxy)-4,5-dihydro[1,2,4]triazolo[4,3-a]quinolin-1(2H)-one ENT-2, hydrochloride salt] as the compound, how does the IC50 read?
A: The IC50 was 3720 nM.

Q: `NC1Cc2cc(-c3cc(C(F)(F)F)ccc3Cl)ccc2-n2c1n[nH]c2=O` (stereo not shown) [Example 21, 4—amino—7—[2—chloro—5—(trifluoromethyl)phenyl]—4,5—dihydro[1,2,4]triazolo[4,3—a]quinolin—1(2H)—one, trifluoroacetate salt] was tested. Which IC50 did it give?
A: Its IC50 is 1250 nM.

Q: Which IC50 does the source give for `NC1Cc2cc(-c3ccccc3F)ccc2-n2c1n[nH]c2=O` (stereo not shown) [Example 29, 4—amino—7—(2—fluorophenyl)—4,5—dihydro[1,2,4]triazolo[4,3—a]quinolin—1(2H)—one, trifluoroacetate salt] here?
A: The IC50 was 361 nM.

Q: How did the IC50 turn out when `COc1cccc(Oc2ccc3c(c2)C[C@H](N)c2noc(=O)n2-3)c1` [Example 6, (4S)-4-Amino-7-(3-methoxyphenoxy)-4,5-dihydro[1,2,4]oxadiazolo[4,3-a]quinolin-1-one, hydrochloride salt] was run?
A: Its IC50 is 390 nM.

Q: With `NC1Cc2cc(Oc3ccccc3)ccc2-n2c1n[nH]c2=O` (stereo not shown) [Example 48, 4—amino—7—phenoxy—4,5—dihydro[1,2,4]triazolo[4,3—a]quinolin—1(2H)—one, hydrochloride salt] as the compound, how does the IC50 read?
A: Its IC50 is 83.7 nM.

Q: How did the IC50 turn out when `NC1Cc2cc(Oc3cccc(C(F)(F)F)c3)ccc2-n2cnnc21` (stereo not shown) [Example 10, 7—[3—(trifluoromethyl)phenoxy]—4,5—dihydro[1,2,4]triazolo[4,3—a]quinolin—4—amine, hydrochloride salt] was run?
A: The IC50 was 185 nM.

Q: `NC1Cc2cc(-c3cccc(F)c3F)ccc2-n2c1n[nH]c2=O` (stereo not shown) [Example 26, 4—amino—7—(2,3-difluorophenyl)—4,5—dihydro[1,2,4]triazolo[4,3—a]quinolin—1(2H)—one, trifluoroacetate salt] was tested. Which IC50 did it give?
A: The IC50 was 364 nM.

Q: With `NC1Cc2cc(Oc3cccc(C(F)(F)F)c3)ccc2-n2c1n[nH]c2=O` (stereo not shown) [Example 3, 4-amino-7-[3-(trifluoromethyl)phenoxy]-4,5-dihydro[1,2,4]triazolo[4,3-a]quinolin-1(2H)-one, hydrochloride salt] as the compound, how does the IC50 read?
A: Its IC50 is 91.4 nM.

Q: `NC1Cc2cc(Oc3ccccc3)cnc2-n2c1n[nH]c2=O` (single isomer, unassigned; ent-1) [Example 2, 6-Amino-3-phenoxy-6,8-dihydro[1,2,4]triazolo[4,3-a][1,8]naphthyridin-9(5H)-one, ENT-1] was tested. Which IC50 did it give?
A: The IC50 was 59 nM.
